Source: US20240293392A1, “INHIBITOR COMPOUNDS” (NeoPhore Limited, priority 2021, published 2024)
pIC50: −log10 of the molar value.

Legend:
[1] = biological target: T1, recombinant N-terminal PMS2 (residues 1-365) (Homo sapiens, UniProt P54278); assay: Fluorescence Polarisation Assay for PMS2; assay type: binding; conditions: fluorescence polarisation probe displacement; 10 nM N-terminal PMS2, 5 nM probe compound; read-out: PMS2 IC50
T1 construct: recombinant N-terminal PMS2 (residues 1-365)
T1 sequence (P54278 1-365): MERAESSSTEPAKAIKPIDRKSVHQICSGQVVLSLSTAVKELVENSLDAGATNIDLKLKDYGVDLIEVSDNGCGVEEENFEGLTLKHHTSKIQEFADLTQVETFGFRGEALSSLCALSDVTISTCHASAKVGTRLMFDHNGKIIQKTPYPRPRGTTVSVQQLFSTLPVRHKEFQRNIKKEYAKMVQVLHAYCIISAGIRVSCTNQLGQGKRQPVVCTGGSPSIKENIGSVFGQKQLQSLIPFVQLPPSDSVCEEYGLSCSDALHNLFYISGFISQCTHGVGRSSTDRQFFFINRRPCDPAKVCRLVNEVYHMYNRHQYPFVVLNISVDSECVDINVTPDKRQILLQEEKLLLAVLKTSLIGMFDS
Method in brief: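 Competition fluorescence polarisation with 10 nM N-terminal PMS2 and 5 nM fluorescent probe (final), read after 1 h at room temperature following 30 min compound pre-incubation. Data normalised to no-inhibitor and no-enzyme controls; single-point screening or serial dilutions for potency.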

[2] = biological target: T2, recombinant N-terminal MLH1 (residues 15-340) (Homo sapiens, UniProt P40692); assay: Fluorescence Polarisation Assay for MLH1; assay type: binding; conditions: fluorescence polarisation probe displacement; 100 nM N-terminal MLH1, 5 nM probe compound
T2 construct: recombinant N-terminal MLH1 (residues 15-340)
T2 sequence (P40692 15-340): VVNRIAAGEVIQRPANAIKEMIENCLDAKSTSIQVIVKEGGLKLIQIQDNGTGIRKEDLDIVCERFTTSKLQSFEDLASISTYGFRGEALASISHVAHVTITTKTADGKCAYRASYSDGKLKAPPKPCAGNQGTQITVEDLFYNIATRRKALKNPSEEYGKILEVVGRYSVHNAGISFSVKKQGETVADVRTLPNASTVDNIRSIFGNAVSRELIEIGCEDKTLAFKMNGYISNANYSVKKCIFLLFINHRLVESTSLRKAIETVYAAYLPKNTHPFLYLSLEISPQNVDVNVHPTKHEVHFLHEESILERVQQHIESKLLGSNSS
Method in brief: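 FP displacement assay: 100 nM MLH1 (residues 15-340) preincubated 30 min at room temperature with compound in 25 mM HEPES pH 7.5, 250 mM NaCl, 10 mM MgCl2, 0.01% Triton X-100, 5 mM DTT, then 5 nM rhodamine-labelled probe added and read immediately. Data normalised to no-inhibitor and no-enzyme controls.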

**Q.** Which results are given for `N#Cc1cccc2c1CN(C(=O)c1c(O)cc(O)cc1OCc1ccccc1)C2` [Example 91, 2-(2-(Benzyloxy)-4,6-dihydroxybenzoyl)isoindoline-4-carbonitrile]?
**A.** pIC50 [1]: > 6.00; pIC50 [2]: 5.00 to 6.00

**Q.** With `CN1CC(Nc2cccc3c2CN(C(=O)c2c(O)cc(O)cc2OCc2ccccc2)CC3)CC1=O` (single isomer, unassigned) [Example 61, 4-((2-(2-(Benzyloxy)-4,6-dihydroxybenzoyl)-1,2,3,4-tetrahydroisoquinolin-8-yl)amino)-1-methylpyrrolidin-2-one] as the compound, how does the pIC50 [1] read?
**A.** The pIC50 was < 5.00.

**Q.** And the pIC50 [2]?
**A.** Its pIC50 is > 6.00.

**Q.** `O=C(c1c(O)cc(O)cc1OCc1ccccc1)N1Cc2cccc(N[C@H]3CCOC3)c2C1` [Example 22, (S)-(2-(Benzyloxy)-4,6-dihydroxyphenyl)(4-((tetrahydrofuran-3-yl)amino)isoindolin-2-yl)methanone] was tested. Which pIC50 [1] did it give?
**A.** Its pIC50 is > 6.00.

**Q.** What about the pIC50 [2] of the same compound?
**A.** The pIC50 was > 6.00.

**Q.** How did the pIC50 [1] turn out when `CN1CCN(Cc2cc3c(c(N[C@H]4CCOC4)c2)CN(C(=O)c2c(O)cc(O)cc2OCc2ccccc2)CC3)CC1` [Example 121, (S)-(2-(Benzyloxy)-4,6-dihydroxyphenyl)(6-((4-methylpiperazin-1-yl)methyl)-8-((tetrahydrofuran-3-yl)amino)-3,4-dihydroisoquinolin-2(1H)-yl)methanone] was run?
**A.** Its pIC50 is > 6.00.

**Q.** What about the pIC50 [2] of the same compound?
**A.** Its pIC50 is > 6.00.

**Q.** What does the source list for `O=C(c1c(O)cc(O)cc1OCc1ccccc1)N1CCc2ncnc(N[C@H]3CCOC3)c2C1` [Example 115, (S)-(2-(Benzyloxy)-4,6-dihydroxyphenyl)(4-((tetrahydrofuran-3-yl)amino)-7,8-dihydropyrido[4,3-d]pyrimidin-6(5H)-yl)methanone]?
**A.** pIC50 [1]: 5.00 to 6.00; pIC50 [2]: 5.00 to 6.00

**Q.** How did the pIC50 [1] turn out when `O=C(c1c(O)cc(O)cc1OCc1ccccc1)N1CCc2cccc(NC3CCS(=O)(=O)C3)c2C1` (single isomer, unassigned) [Example 147b, (2-(Benzyloxy)-4,6-dihydroxyphenyl)(8-((1,1-dioxidotetrahydrothiophen-3-yl)amino)-3,4-dihydroisoquinolin-2(1H)-yl)methanone] was run?
**A.** Its pIC50 is 5.00 to 6.00.

**Q.** And the pIC50 [2]?
**A.** The pIC50 was > 6.00.

**Q.** How did the pIC50 [1] turn out when `COCCOc1cc2c(c(N[C@@H]3CCOC3)c1)CN(C(=O)c1c(O)cc(O)cc1OCC1CC1)CC2` [Example 141, (R)-(2-(Cyclopropylmethoxy)-4,6-dihydroxyphenyl)(6-(2-methoxyethoxy)-8-((tetrahydrofuran-3-yl)amino)-3,4-dihydroisoquinolin-2(1H)-yl)methanone] was run?
**A.** The pIC50 was < 5.00.

**Q.** What about the pIC50 [2] of the same compound?
**A.** Its pIC50 is 5.00 to 6.00.

**Q.** Which results are given for `NC(=O)c1ccc(Nc2cccc3c2CN(C(=O)c2c(O)cc(O)cc2OCc2ccccc2)CC3)cc1` [Example 75, 4-((2-(2-(Benzyloxy)-4,6-dihydroxybenzoyl)-1,2,3,4-tetrahydroisoquinolin-8-yl)amino)benzamide]?
**A.** pIC50 [1]: < 5.00; pIC50 [2]: < 5.00

**Q.** With `O=C(c1c(O)cc(O)cc1OCC1CCCCC1)N1Cc2cccc(NC3CCOC3)c2C1` (centres unmarked) [Example 26, (2-(cyclohexylmethoxy)-4,6-dihydroxyphenyl)(4-((tetrahydrofuran-3-yl)amino)isoindolin-2-yl)methanone] as the compound, how does the pIC50 [1] read?
**A.** Its pIC50 is 5.00 to 6.00.

**Q.** What about the pIC50 [2] of the same compound?
**A.** Its pIC50 is 5.00 to 6.00.

**Q.** With `Cc1ncncc1Nc1cccc2c1CN(C(=O)c1c(O)cc(O)cc1OCc1ccccc1)CC2` [Example 123, (2-(Benzyloxy)-4,6-dihydroxyphenyl)(8-((4-methylpyrimidin-5-yl)amino)-3,4-dihydroisoquinolin-2(1H)-yl)methanone] as the compound, how does the pIC50 [1] read?
**A.** The pIC50 was < 5.00.

**Q.** What about the pIC50 [2] of the same compound?
**A.** Its pIC50 is 5.00 to 6.00.

**Q.** How did the pIC50 [1] turn out when `CC(=O)Nc1cccc2c1CN(C(=O)c1c(O)cc(O)cc1OCc1ccccc1)C2` [Example 94, N-(2-(2-(benzyloxy)-4,6-dihydroxybenzoyl)isoindolin-4-yl)acetamide] was run?
**A.** Its pIC50 is 5.00 to 6.00.

**Q.** What about the pIC50 [2] of the same compound?
**A.** The pIC50 was 5.00 to 6.00.

**Q.** How did the pIC50 [1] turn out when `O=C(c1c(O)cc(O)cc1OCc1ccccc1)N1CCc2cccc(Nc3ccnnc3)c2C1` [Example 120, (2-(Benzyloxy)-4,6-dihydroxyphenyl)(8-(pyridazin-4-ylamino)-3,4-dihydroisoquinolin-2(1H)-yl)methanone] was run?
**A.** Its pIC50 is 5.00 to 6.00.

**Q.** What about the pIC50 [2] of the same compound?
**A.** The pIC50 was > 6.00.

**Q.** Which results are given for `CN1CC(Nc2cccc3c2CN(C(=O)c2c(O)cc(O)cc2OCc2ccccc2)C3)CC1=O` (centres unmarked) [Example 18, 4-((2-(2-(Benzyloxy)-4,6-dihydroxybenzoyl)isoindolin-4-yl)amino)-1-methylpyrrolidin-2-one]?
**A.** pIC50 [1]: 5.00 to 6.00; pIC50 [2]: > 6.00

**Q.** `O=C(c1c(O)cc(O)cc1OCc1ccccc1)N1Cc2cccc(NCC3CCCO3)c2C1` (centres unmarked) [Example 33, (2-(Benzyloxy)-4,6-dihydroxyphenyl)(4-(((tetrahydrofuran-2-yl)methyl)amino)isoindolin-2-yl)methanone] was tested. Which pIC50 [1] did it give?
**A.** The pIC50 was 5.00 to 6.00.

**Q.** What about the pIC50 [2] of the same compound?
**A.** The pIC50 was > 6.00.

**Q.** How did the pIC50 [1] turn out when `O=C(c1c(O)cc(O)cc1OCc1ccccc1)N1Cc2cccc(N[C@@H]3CCOC3)c2C1` [Example 23, (R)-(2-(Benzyloxy)-4,6-dihydroxyphenyl)(4-((tetrahydrofuran-3-yl)amino)isoindolin-2-yl)methanone] was run?
**A.** Its pIC50 is 5.00 to 6.00.

**Q.** And the pIC50 [2]?
**A.** Its pIC50 is > 6.00.

**Q.** Which results are given for `CN1CCN(C(=O)c2cc3c(c(N[C@H]4CCOC4)c2)CN(C(=O)c2c(O)cc(O)cc2OCc2ccccc2)CC3)CC1` [Example 127, (S)-(2-(2-(Benzyloxy)-4,6-dihydroxybenzoyl)-8-((tetrahydrofuran-3-yl)amino)-1,2,3,4-tetrahydroisoquinolin-6-yl)(4-methylpiperazin-1-yl)methanone]?
**A.** pIC50 [1]: > 6.00; pIC50 [2]: > 6.00

**Q.** What does the source list for `CNCc1ccc2c(c1)CN(C(=O)c1c(O)cc(O)cc1OCc1ccccc1)C2` [Example 4, (2-(Benzyloxy)-4,6-dihydroxyphenyl)(5-((methylamino)methyl)isoindolin-2-yl)methanone]?
**A.** pIC50 [1]: > 6.00; pIC50 [2]: > 6.00

**Q.** Which results are given for `COc1ccc2c(c1)CN(C(=O)c1c(O)cc(O)cc1OCc1ccccc1)CC2` [Example 49, (2-Benzyloxy-4,6-dihydroxy-phenyl)-(7-methoxy-3,4-dihydro-1H-isoquinolin-2-yl)methanone]?
**A.** pIC50 [1]: 5.00 to 6.00; pIC50 [2]: 5.00 to 6.00

**Q.** `O=C(c1c(O)cc(O)cc1OCc1ccccc1)N1CCc2cccc(Nc3cnccn3)c2C1` [Example 119, (2-(Benzyloxy)-4,6-dihydroxyphenyl)(8-(pyrazin-2-ylamino)-3,4-dihydroisoquinolin-2(1H)-yl)methanone] was tested. Which pIC50 [1] did it give?
**A.** The pIC50 was 5.00 to 6.00.

**Q.** What about the pIC50 [2] of the same compound?
**A.** Its pIC50 is 5.00 to 6.00.
